Consider three compounds from patent publication US20220387620A1, “NANOSTRUCTURED DRUG DELIVERY SYSTEM AS A MULTIFUNCTIONAL PLATFORM FOR THERAPY” (priority 2019, published 2022).

The test system of one data set is U-87 MG cells. Description: Resazurin cell viability / cytotoxicity assay. It is filed as cell-based, human. Particulars: free drug. As to the method: Regarding cell viability, U-87 MG cells were cultured in DMEM/F-12 medium, supplemented with 10% (v/v) FBS, 1% (v/v) penicillin-streptomycin solution and sodium bicarbonate. Cells were maintained at 37° C. in a humidified atmosphere containing CO2 (5%). The resazurin assay was used to determine the cytotoxicity of NLCs. Briefly, 2000 cells per well were seeded in a 96 well plate and incubated for 24 h or 72 h after the medium was replaced with increasing concentrations of free drugs or NLCs. Subsequently, the medium was removed and the cell viability determined. For this purpose, 100 μL of 10% (w/v) resazurin solution in DMEM/F 12 was added to the cells and incubated for approximately 2 h, at 37° C. The enzymatic reduction of resazurin to resorufin was analyzed by UV/Vis spectrophotometry at 570 nm and 600 nm. Cell viability was assessed indirectly according to equation 1.
(Alamar Blue is a resazurin reagent that responds to reducing activity.)

The next data set relates to human blood. In words: In vitro hemolytic activity (NCL ITA-1 protocol). It is filed as cell-based. Particulars: positive control, 3 h at 37° C. From the text: The haemolytic behaviour of NLCs formulations was explored following the Nanotechnology Characterization Lab (NCL) protocol for analysis of Haemolytic Properties of Nanoparticles (NCL ITA-1 Version 1.2), with slight modifications. Briefly, fresh human blood was drawn from healthy participants in the Laboratory of Clinical Analysis of the Faculty of Pharmacy of the University of Coimbra, after a written informed consent was obtained from all individuals. The venous blood, collected in heparinised vacutainer tubes, was properly diluted in PBS to final a concentration of 10 mg/mL of total blood haemoglobin, and incubated with the NLCs at eight different concentrations, regarding ATO content for 3 h at 37° C. Aqueous and acetate buffered polysorbate 80 solutions were also tested in 15 and 100 μg/mL. PBS and Triton™ X-100 were used as negative and positive controls, respectively, with additional no-blood controls being used due to possible interference of CUR at 540 nm. Following incubation, cell-free supernatants were obtained and any plasma-free haemoglobin and metabolites were converted into cyanmethaemoglobin (CMH), using Drabkin's reagent. The detection of CMH was conducted at 540 nm and the percentage of haemolysis (%) was calculated taking into account the equation 2.

A word on the IC50: it is the concentration that gives 50% inhibition. Lower therefore signals higher potency.

Regarding `CC(C)c1c(C(=O)Nc2ccccc2)c(-c2ccccc2)c(-c2ccc(F)cc2)n1CC[C@@H](O)C[C@@H](O)CC(=O)O` [ATO, atorvastatin calcium], the IC50 in the data set with U-87 MG cells (24 h of incubation) was determined as 134 ± 27 µM; in the data set on U-87 MG cells (72 h of incubation), 25 ± 5 µM.
Turning to `COc1cc(/C=C/C(=O)CC(=O)/C=C/c2ccc(O)c(OC)c2)ccc1O` [CUR, curcumin], the IC50 in the data set with U-87 MG cells (Homo sapiens, U-87 MG, 24 h of incubation) stood at 86 ± 35 µM; in the data set on U-87 MG cells (Homo sapiens, U-87 MG, 72 h of incubation), 77 ± 1 µM.
As for Triton™ X-100, the hemolysis entry with human blood is “complete hemolysis”.
